Literature values in patent US20230355939A1, “DEVICES AND METHODS FOR CONTINUOUS EXTRUSION OF A DRUG INTO THE MOUTH” (SynAgile Corporation, priority 2020, published 2023).

Legend:
[1] = for Approximate Pressure (vapor pressure): at 37° C.

vapor pressure ([1]; at about 23 ± 3° C.)	solubility	SMILES	Approximate Pressure (vapor pressure) [1] [bars]
–	–	FC(C(F)(F)F)C(F)(F)F [1,1,1,2,3,3,3-hepta-fluoropropane]	~6.4
about 5 bars	–	FCC(F)(F)F [1,1,1,2-tetrafluoroethane]	~9.3
–	–	FC(F)(F)CC(F)(F)F [1,1,1,3,3,3 hexafluoropropane]	~4.0
–	–	FCCF [1,2-difluoroethane]	~1.9
–	–	CCCCF [1-fluorobutane]	~1.3
–	–	CCCF [1-fluoropropane]	~4.1
–	–	CC=CC [2-butene]	~3.2
–	–	CC(C)F [2-fluoropropane]	~5
–	about 50 mg/mL	N[C@@H](Cc1ccc(O)c(O)c1)C(=O)O [LD, levodopa]	–
–	–	CCCC [butane]	~3.5
–	–	CCOCC [diethyl ether]	~1.1
–	–	CCC(C)C [isopentane]	~1.4
–	–	CCOC [methyl ethyl ether]	~3
–	–	CC(C)(C)C [neopentane]	~2.4
–	–	FC1(F)C(F)(F)C(F)(F)C1(F)F [octafluorocyclobutane]	~4.3
–	–	CCC [propane]	~12.8
–	–	C=CC [propene]	~15.5
